The values that follow come from paper PMC9599826, “Selecting Multitarget Peptides for Alzheimer’s Disease” (Biomolecules, 2022).

This assay has as its system human TLR4. As to the kind of experiment: TLR4 activation, HEK-Blue hTLR4 SEAP reporter cells. In kind it is cell-based. To be noted: 24 h, SEAP production. As for the experimental part:
The HEK-Blue hTLR4 cells were used for these experiments as previously described. Cells were cultured in complete growth medium: phenol red-free DMEM high glucose medium supplemented with 1 mM sodium pyruvate, 10% heat-inactivated FBS, 50 U/mL penicillin, 50 μg/mL streptomycin, 1X Glutamax, 100 μg/mL Normocin, and 1X HEK-Blue Selection. All stimulation assays were performed on cells that were passaged 3 to 15 times. Cells were carefully rinsed once with ice-cold PBS to remove residual FBS. Then, 2 mL of pre-warmed PBS was added, and dishes were incubated at 37 °C for 5 min to promote cell detachment. Cells were fully detached from plates with gentle tapping, collected, and centrifuged at 52× g for 5 min. […] In another set of experiments, we determined the effects of peptide candidates on the activation of hTLR4 by S100A9. […] Secreted alkaline phosphatase (SEAP) production was measured in each challenged well by transferring 20 μL of medium to a fresh 96-well plate containing 200 μL of Quanti-Blue detection medium. […] The Quanti-Blue plate was developed at 37 °C, 5% CO2, for 3 h followed by OD recordings at 630 nm using the Synergy2 microplate reader and Gen5 software. […]
Figure 6 TLR4 activation by S100A9 and effects of peptide candidates. (A) SEAP production was measured in cell medium following 24 h incubation with indicated concentrations of ligands. […]

As for “S100A9: Recombinant human calcium binding protein S100A9 (C-terminus 8-His tag); known agonist of TLR4, positive control”, the “concentration giving maximum receptor stimulation” value is 50 nM. Also, the EC50 (read-out: half maximal effective concentration (EC50) for TLR4 activation) is 0.7 nM.
